Experimental data: PMC10304880, “Novel Tryptanthrin Derivatives with Selectivity as c–Jun N–Terminal Kinase (JNK) 3 Inhibitors” (Molecules, 2023)
Read-outs that look alike come from different tables or passages of the source.

What was measured:
[1] = target: T1, JNK3 (Homo sapiens, UniProt P53779); test: KINOMEscan JNK3 binding (Kd); settings: for Kd: KINOMEscan, 12-point series, max 33 μM, duplicate; for Selectivity Index JNK1/JNK3 / Selectivity Index JNK2/JNK3: ratio of Kd values
T1 construct: purchased Eurofins Pharma Discovery (KINOMEscan service)
T1 sequence (P53779 whole entry): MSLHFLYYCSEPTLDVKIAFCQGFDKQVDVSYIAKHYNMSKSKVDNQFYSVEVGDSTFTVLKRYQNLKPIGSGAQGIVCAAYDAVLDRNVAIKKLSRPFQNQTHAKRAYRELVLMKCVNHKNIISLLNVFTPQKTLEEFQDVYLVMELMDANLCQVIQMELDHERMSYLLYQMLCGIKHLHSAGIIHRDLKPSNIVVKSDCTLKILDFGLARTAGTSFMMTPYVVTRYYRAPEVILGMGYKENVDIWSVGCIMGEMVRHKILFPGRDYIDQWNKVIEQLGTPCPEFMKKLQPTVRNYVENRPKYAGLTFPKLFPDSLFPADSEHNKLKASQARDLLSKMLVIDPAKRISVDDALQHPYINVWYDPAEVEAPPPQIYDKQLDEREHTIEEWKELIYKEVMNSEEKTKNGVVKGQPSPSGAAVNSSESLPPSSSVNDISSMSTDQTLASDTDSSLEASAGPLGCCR
Experimental: (§1) All compounds were evaluated for their ability to bind to JNK1-3 using the KINOMEscan platform.
(§2) Compounds were submitted for dissociation constant (Kd) determination using KINOMEscan (Eurofins Pharma Discovery, San Diego, CA, USA), as described previously. […] Primary screening at fixed concentrations of compounds was performed in duplicate. To determine dissociation constant Kd, a 12-point half-log dilution series (a maximum concentration of 33 μM) was used.

[2] = CellTiter-Glo cytotoxicity in MonoMac-6 cells; assay type: cell-based; settings: human, 24 h incubation
Experimental: (§3) Prior to evaluation of the compounds in cell-based assays, we measured their cytotoxicity in human monocytic THP-1Blue and MonoMac-6 cells during a 24 h incubation. […] Thus, these compounds were all excluded from subsequent testing in these cell lines.
(§4) Cytotoxicity was analyzed with a CellTiter-Glo Luminescent Cell Viability Assay Kit from Promega (Madison, WI, USA), according to the manufacturer’s protocol. Cells were treated with the compound under investigation and cultivated for 24 h. After treatment, the cells were allowed to equilibrate to room temperature for 30 min, substrate was added, and the luminescence measured using a Fluoroscan Ascent FL (Thermo Fisher Scientific, Waltham, MA, USA). The cell IC50 values were calculated by plotting the percentage inhibition against the logarithm of inhibitor concentration (at least five points).

[3] = CellTiter-Glo cytotoxicity in THP-1Blue cells; assay type: cell-based; settings: human, 24 h incubation
Experimental: as §3, §4

[4] = system: IL-6 production in MonoMac-6 cells; test: LPS-induced IL-6 production in MonoMac-6 cells (ELISA); assay type: cell-based, human; settings: 250 ng/mL LPS, 24 h
Experimental: All cells were cultured at 37 °C in a humidified atmosphere containing 5% CO2. Human THP-1Blue monocytic cells obtained from InvivoGen (San Diego, CA, USA) were cultured in RPMI 1640 medium (Mediatech Inc., Herndon, VA, USA) supplemented with 10% (v/v) fetal bovine serum (FBS), 4.5 g/L glucose, 100 μg/mL streptomycin, 100 U/mL penicillin, 100 μg/mL phleomycin (Zeocin), and 10 μg/mL blasticidin S. Human monocyte-macrophage MonoMac-6 cells (Deutsche Sammlung von Mikroorganismen und Zellkulturen GmbH, Braunschweig, Germany) were grown in RPMI 1640 medium supplemented with 10% (v/v) FBS, 10 μg/mL bovine insulin, 100 μg/mL streptomycin, and 100 U/mL penicillin.
(§5) Panel (A) THP-1Blue cells were pretreated with the indicated compounds or DMSO for 30 min, followed by addition of 250 ng/mL LPS or buffer for 24 h. […] Panel (B) MonoMac-6 cells were pretreated with the indicated compounds or DMSO for 30 min, followed by addition of 250 ng/mL LPS or buffer for 24 h. Production of IL-6 in the supernatants was evaluated with ELISA. The data in each panel are presented as the mean ± S.D. of triplicate samples from one experiment that is representative of three independent experiments.

[5] = target: T2, JNK1 (Homo sapiens, UniProt P45983); test: KINOMEscan JNK1 binding (Kd); settings: 12-point series, max 33 μM, duplicate
T2 construct: purchased Eurofins Pharma Discovery (KINOMEscan service)
T2 sequence (P45983 whole entry): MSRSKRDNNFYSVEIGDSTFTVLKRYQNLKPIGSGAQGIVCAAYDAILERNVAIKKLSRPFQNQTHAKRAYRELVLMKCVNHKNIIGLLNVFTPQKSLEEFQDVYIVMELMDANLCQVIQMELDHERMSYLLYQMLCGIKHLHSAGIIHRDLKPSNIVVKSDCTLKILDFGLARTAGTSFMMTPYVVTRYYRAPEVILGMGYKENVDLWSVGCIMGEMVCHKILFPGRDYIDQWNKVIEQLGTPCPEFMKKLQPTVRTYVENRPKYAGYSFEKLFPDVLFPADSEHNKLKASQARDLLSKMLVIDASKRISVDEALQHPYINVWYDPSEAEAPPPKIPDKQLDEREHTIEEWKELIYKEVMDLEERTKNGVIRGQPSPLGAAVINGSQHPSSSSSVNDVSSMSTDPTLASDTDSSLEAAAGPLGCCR
Experimental: as §1, §2

[6] = target: T3, JNK2 (Homo sapiens, UniProt P45984); test: KINOMEscan JNK2 binding (Kd); settings: 12-point series, max 33 μM, duplicate
T3 construct: purchased Eurofins Pharma Discovery (KINOMEscan service)
T3 sequence (P45984 whole entry): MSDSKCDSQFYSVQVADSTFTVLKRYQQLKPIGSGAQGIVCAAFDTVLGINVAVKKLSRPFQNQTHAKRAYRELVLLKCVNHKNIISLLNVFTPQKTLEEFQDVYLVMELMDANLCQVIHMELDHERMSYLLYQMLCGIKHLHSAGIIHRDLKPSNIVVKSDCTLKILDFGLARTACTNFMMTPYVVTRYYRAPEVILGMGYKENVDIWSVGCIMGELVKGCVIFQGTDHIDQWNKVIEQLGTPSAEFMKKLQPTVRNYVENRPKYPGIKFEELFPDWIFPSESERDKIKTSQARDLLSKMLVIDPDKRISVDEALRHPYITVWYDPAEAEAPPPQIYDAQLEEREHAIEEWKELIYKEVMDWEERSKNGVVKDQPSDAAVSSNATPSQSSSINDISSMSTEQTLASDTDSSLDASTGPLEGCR
Experimental: as §1, §2

[7] = system: c-Jun phosphorylation in MonoMac-6 cells; test: LPS-induced c-Jun (Ser63) phosphorylation in MonoMac-6 cells (sandwich ELISA); assay type: cell-based, human; settings: 30 min pretreatment, LPS 500 ng/mL
Experimental: After 30 min pretreatment with the compounds, the cells were stimulated with LPS (500 ng/mL), and the level of phospho-c-Jun (S63) was determined by a sandwich ELISA.
MonoMac-6 cell lysates were prepared using Cell Lysis Buffer (Cell Signaling Technology, Danvers, MA, USA). The phospho-c-Jun content was measured with ELISA using the PathScan Phospho-c-Jun (Ser63) Sandwich ELISA Kit II (Cell Signaling Technology, USA), and the data are shown as the ratio of phospho-c-Jun vs. total c-Jun, which was measured using the FastScanTM Total c-Jun ELISA kit (Cell Signaling Technology).
Figure 3 Effect of the compounds 4d, 4e, 4h, and IQ-1S on LPS-induced c-Jun phosphorylation. Human MonoMac-6 monocytic cells were pretreated with the indicated concentrations of compounds or 0.5% DMSO for 30 min, followed by treatment with LPS (500 ng/mL) or control buffer for another 30 min. The cells were lysed, and the lysates were analyzed with ELISA for phospho-c-Jun (Ser63) and total c-Jun. The data are represented as the ratio of phospho-c-Jun to total c-Jun. The data are presented as the mean ± S.D. of triplicate samples from one experiment that is representative of three independent experiments. * Significant differences (p < 0.05) with LPS control.

[8] = system: NF-κB/AP-1 transcriptional activity in THP-1Blue cells; test: LPS-induced NF-κB/AP-1 alkaline phosphatase reporter assay in THP-1Blue cells; assay type: cell-based; settings: Homo sapiens, 30 min pretreatment, 250 ng/mL LPS, 24 h; read-out: AP Production in THP–1Blue IC50
Experimental: Activation of AP-1/NF-κB was measured using an alkaline phosphatase reporter gene assay in THP1-Blue cells. Human monocytic THP-1Blue cells were stably transfected with a secreted embryonic alkaline phosphatase gene that was under the control of a promoter inducible by AP-1/NF-κB.
as §5, with “Figure 2 Effect of compounds 4d and 4e on NF-κB/AP-1 activity and IL-6 production. Panel (A)” for “Panel (A)”

[9] = target: T1, JNK3; settings: cited from earlier work; for Kd: Figure 1, ref [49],[50],[51]
[10] = target: T3, JNK2; settings: Figure 1; ref [49],[50],[51]; cited from earlier work
[11] = target: T2, JNK1; settings: Figure 1; ref [49],[50],[51]; cited from earlier work
[12] = Homo sapiens, MONO-MAC-6, 30 min pretreatment

| Structure (SMILES) | selectivity index (JNK3 versus JNK1 and JNK2) [1] | Kd [1] [µM] | Selectivity Index JNK1/JNK3 [1] | Selectivity Index JNK2/JNK3 [1] | melting point | IC50 ([4]; 30 min pretreatment) [µM] | IC50 [4, 12] [µM] | Kd [5] [µM] | Kd [6] [µM] | IC50 [8] [µM] | IC50 at 24 h [2] [µM] | IC50 at 24 h [3] [µM] | LPS-induced c-Jun phosphorylation (phospho-c-Jun S63 / total c-Jun) [7] | Kd [9] [µM] | Kd [10] [µM] | Kd [11] [µM] | selectivity for JNK3 binding versus JNK1/JNK2 ([9]; ref [49]) |
| --- | --- | --- | --- | --- | --- | --- | --- | --- | --- | --- | --- | --- | --- | --- | --- | --- | --- |
| [Na+].[O-]/N=C1/c2ccccc2-c2nc3ccccc3nc21 [IQ-1S, reference compound] | – | – | – | – | – | – | – | – | – | – | – | – | dose-dependently inhibited | – | – | – | – |
| O/N=C1\c2ccccc2-c2nc3cc(F)c(F)cc3nc21 [IQ–4f] | – | – | – | – | – | – | – | – | – | – | – | – | – | 0.52 | > 30 | 0.17 | – |
| O/N=C1\c2ccccc2-c2nc3ccc(Cl)cc3nc21 [IQ–6i] | – | – | – | – | – | – | – | – | – | – | – | – | – | 0.71 | 21.5 | 1.1 | – |
| N#CCO/N=C1\c2ccccc2-n2c1nc1ccccc1c2=O [TRYP–1e] | – | – | – | – | – | – | – | – | – | – | – | – | – | 1.5 | 17.5 | 19.5 | ~ 10 fold |

Further lines, with some results ahead:

| selectivity index (JNK3 versus JNK1 and JNK2) [1] | Kd [1] [µM] | Selectivity Index JNK1/JNK3 [1] | Selectivity Index JNK2/JNK3 [1] | melting point | IC50 ([4]; 30 min pretreatment) [µM] | IC50 [4, 12] [µM] | Kd [5] [µM] | Kd [6] [µM] | IC50 [8] [µM] | Structure (SMILES) | IC50 at 24 h [2] [µM] | IC50 at 24 h [3] [µM] | LPS-induced c-Jun phosphorylation (phospho-c-Jun S63 / total c-Jun) [7] | Kd [9] [µM] | Kd [10] [µM] | Kd [11] [µM] | selectivity for JNK3 binding versus JNK1/JNK2 ([9]; ref [49]) |
| --- | --- | --- | --- | --- | --- | --- | --- | --- | --- | --- | --- | --- | --- | --- | --- | --- | --- |
| > 7 | 0.34 ± 0.03 | >100 | >100 | > 225 °C (dec.) | 0.7 ± 0.1 | < 1 | > 30 | > 30 | 0.8 ± 0.3 | COc1ccc2c(c1)C(=NO)c1nc3ccccc3c(=O)n1-2 [Compound 4d, 8-Methoxyindolo[2,1-b]quinazolin-6,12-dione Oxime] | > 50 | > 50 | dose-dependently inhibited | – | – | – | – |
| > 7 | 0.34 ± 0.04 | >100 | >100 | > 225 °C (dec.) | – | – | > 30 | > 30 | 1.6 ± 0.1 | O=c1c2ccccc2nc2n1-c1ccc(-c3ccccc3)cc1C2=NO [Compound 4e, 8-Phenylindolo[2,1-b]quinazolin-6,12-dione Oxime] | > 50 | > 50 | dose-dependently inhibited | – | – | – | – |
| – | 0.23 ± 0.04 | 2.9 | 2.5 | > 225 °C (dec.) | – | – | 0.67 ± 0.35 | 0.57 ± 0.12 | – | Cc1ccc2c(c1)-n1c(nc3ccccc3c1=O)C2=NO [Compound 4h, 9-Methylindolo[2,1-b]quinazolin-6,12-dione Oxime] | > 50 | > 50 | dose-dependently inhibited | – | – | – | – |
| – | > 30 | – | – | 262 to 263 °C | – | 1.3 ± 0.4 | > 30 | > 30 | 4.6 ± 0.3 | COc1ccc2c(c1)C(=NO)c1nc3ccc(OC)cc3c(=O)n1-2 [Compound 4q, 2,8-Dimethoxylindolo[2,1-b]quinazolin-6,12-dione Oxime] | > 50 | > 50 | – | – | – | – | – |
| – | > 30 | – | – | > 300 °C (dec.) | – | > 50 | > 30 | > 30 | > 50 | O=c1c2c(Br)cccc2nc2n1-c1cccc(Br)c1C2=NO [Compound 4u, 1,7-Dibromoindolo[2,1-b]quinazolin-6,12-dione Oxime] | > 50 | > 50 | – | – | – | – | – |
| – | > 30 | – | – | 218 °C | – | > 50 | > 30 | > 30 | > 50 | CCOC(=O)CON=C1c2ccccc2-n2c1nc1ccccc1c2=O [Compound 5a, Ethyl 2-(((12-Oxoindolo[2,1-b]quinazolin-6(12H)-ylidene)amino)oxy)acetate] | > 50 | > 50 | – | – | – | – | – |
| – | > 30 | – | – | 211 °C | – | > 50 | 16.5 ± 0.7 | > 30 | > 50 | CCOC(=O)C(ON=C1c2ccccc2-n2c1nc1ccccc1c2=O)C(=O)OCC [Compound 5b, Diethyl 2-(((12-Oxoindolo[2,1-b]quinazolin-6(12H)-ylidene)amino)oxy)malonate] | > 50 | > 50 | – | – | – | – | – |
| – | 0.7 ± 0.12 | 2.4 | 4.0 | 197 °C | – | 12.4 ± 1.3 | 1.7 ± 0.4 | 2.8 ± 0.5 | 8.1 ± 2.2 | COC(=O)ON=C1c2ccccc2-n2c1nc1ccccc1c2=O [Compound 5c, 6-(((Methoxycarbonyl)oxy)imino)indolo[2,1-b]quinazolin-12(6H)-one] | > 50 | > 50 | – | – | – | – | – |
| – | 0.32 ± 0.06 | 3.0 | 5.0 | 210 °C | – | 7 ± 0.9 | 0.95 ± 0.03 | 1.6 ± 0.1 | 4.4 ± 1.6 | C#CCOC(=O)ON=C1c2ccccc2-n2c1nc1ccccc1c2=O [Compound 5d, 6-((((Prop-2-yn-1-yloxy)carbonyl)oxy)imino)indolo[2,1-b]quinazolin-12(6H)-one] | > 50 | > 50 | – | – | – | – | – |
